{"source": "patent US20140256766A1", "about": "“TRANSMUCOSAL DRUG DELIVERY SYSTEM” (priority 2013, published 2014)", "origin": "cited, not measured here", "key": {"[1]": {"conditions": "smoking a cigarette (WO 03/055486 A1)"}, "[2]": {"conditions": "pH 6.8"}}, "data": [{"smiles": "CN1CCCC1c1cccnc1", "note": "(centres unmarked) [nicotine]", "values": [{"measurement": "time to peak plasma nicotine levels", "setting": "[1]", "result": "about 10 minutes"}, {"measurement": "nicotine in the free base form", "setting": "[2]", "result": "about 10%"}]}]}
